According to patent publication US11667602B2, “Compounds and their use” (AstraZeneca AB, priority 2020, dated 2023):
In brackets after ≈: the same amount, converted by molar mass.

Key:
[1] = Human Plasma Protein Binding (Test B); format: in vitro ADME; settings: fraction unbound (fu)
Summary of the method: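 Human plasma protein binding run per the published Wernevik et al. (2020) integrated DMPK panel protocol. Values are fraction unbound (fu, % free); repeat runs averaged arithmetically.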

[2] = Human Liver Microsomal Stability (Test C); format: in vitro ADME; settings: for Test C Human Liver Microsomal Stability Clint: human liver microsomes; for microsomal CLint: human, liver microsomes
Summary of the method: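 Human liver microsome incubation per the Wernevik et al. integrated DMPK panel protocol. Intrinsic clearance reported as CLint in μl/min/mg protein, averaged arithmetically over repeat runs.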

[3] = Human Hepatocyte Stability (Test D); format: in vitro ADME; settings: geometric mean if run multiple times; for Test D Human Hepatocyte Stability Clint: human hepatocytes; for hepatocyte CLint at 1 µM: human, cryopreserved pooled human hepatocytes (LiverPool 10-Donor)
Summary of the method: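 Pooled 10-donor cryopreserved human hepatocytes (≥80% viable) in L-15 medium at 0.25×10^6 cells per 0.25 mL well. Compound added from 100 μM acetonitrile solution; incubated at 37 °C with shaking, acetonitrile-quenched, LC-MS analysed. Clint (μL/min/10^6 cells) from ln % parent vs time slope; geometric mean of repeat runs.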

[4] = Rat Hepatocyte Stability (Test E); format: in vitro ADME; settings: geometric mean if run multiple times; for Test E Rat Hepatocyte Stability Clint: rat hepatocytes; for hepatocyte CLint: rat, hepatocytes
Summary of the method: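 Run per the published AstraZeneca-type rat hepatocyte stability protocol (Wernevik et al. panel). Values are mean intrinsic clearance, Clint in μl/min/10^6 cells; geometric mean used for repeated runs.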

Solubility (Test F) = format: physicochemical; settings: arithmetic mean if run multiple times
Description: The assay was conducted according to the Solubility Assay described in pages 164-167 of Wernevik, J. et al., “A Fully Integrated Assay Panel for Early Drug Metabolism and Pharmacokinetics Profiling”, Assay and Drug Development Technologies, 2020, 18(4), 157-179. Data are reported in Table 36 as solubility ([…]. Where the assay was run multiple times for the same compound, the arithmetic mean is reported.

human RXFP1 = target: T1, human RXFP1 (Homo sapiens, UniProt Q9HBX9); assay: RXFP1 Hu cAMP (Test A); format: cell-based; set-up: expressed in transfected cells; host or cells: Jump-In T-REx CHO-K1 cells (ThermoFisher), induced with 10 ng/ml doxycycline for 24 h; settings: RXFP1 Hu cAMP; for EC50: read-out: Test A EC50
T1 sequence (Q9HBX9 1-757): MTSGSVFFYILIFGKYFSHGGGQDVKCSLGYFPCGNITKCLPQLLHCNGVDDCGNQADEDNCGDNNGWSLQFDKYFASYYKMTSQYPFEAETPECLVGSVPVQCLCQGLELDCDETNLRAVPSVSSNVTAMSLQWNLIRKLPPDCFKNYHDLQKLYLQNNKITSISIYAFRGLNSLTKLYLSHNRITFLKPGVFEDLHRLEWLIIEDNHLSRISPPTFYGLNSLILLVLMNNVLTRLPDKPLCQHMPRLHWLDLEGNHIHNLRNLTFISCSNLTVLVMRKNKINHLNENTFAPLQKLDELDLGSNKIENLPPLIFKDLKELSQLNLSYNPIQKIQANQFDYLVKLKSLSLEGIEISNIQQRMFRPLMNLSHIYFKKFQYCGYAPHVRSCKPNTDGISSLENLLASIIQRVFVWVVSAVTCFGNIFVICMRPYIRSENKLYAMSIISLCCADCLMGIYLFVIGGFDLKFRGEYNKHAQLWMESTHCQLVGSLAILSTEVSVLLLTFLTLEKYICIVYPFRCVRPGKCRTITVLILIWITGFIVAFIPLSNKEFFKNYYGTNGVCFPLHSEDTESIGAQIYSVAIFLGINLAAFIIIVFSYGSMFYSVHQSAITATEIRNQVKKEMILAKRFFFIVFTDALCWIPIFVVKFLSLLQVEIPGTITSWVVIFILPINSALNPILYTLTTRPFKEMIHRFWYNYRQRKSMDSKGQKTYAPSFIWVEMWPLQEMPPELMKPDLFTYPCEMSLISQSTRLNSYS
Summary of the method: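 Doxycycline-induced (10 ng/ml, 24 h) CHO-K1 cells stably expressing human RXFP1; cAMP read by competitive HTRF after 2 h at room temperature, with 0.5 mM IBMX final.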

| SMILES | Test B Human Plasma Protein Binding (% free) [1] [% free] | Test C Human Liver Microsomal Stability Clint [2] [µL/min/mg] | Test D Human Hepatocyte Stability Clint [3] [μL/min/10^6 cells] | Test E Rat Hepatocyte Stability Clint [4] [μL/min/10^6 cells] | solubility (Solubility (Test F)) [µM] | Test A Sinf (human RXFP1) [%] | EC50 (human RXFP1) [µM] | microsomal CLint [2] [µL/min/mg] | hepatocyte CLint at 1 µM [3] [µL/min/1e6 cells] | hepatocyte CLint [4] [µL/min/1e6 cells] |
| --- | --- | --- | --- | --- | --- | --- | --- | --- | --- | --- |
| COc1cc(C#N)c(O[C@H]2CC[C@@](C)(C(=O)O)CC2)cc1C(=O)N[C@H]1C2CCC(CC2)[C@H]1C(=O)NCC1(C)CCC1 (relative stereo) [Example 539, (1R,4s)-4-(2-Cyano-4-methoxy-5-(((2S*,3R*)-3-(((1-methylcyclobutyl)methyl)carbamoyl)bicyclo[2.2.2]octan-2-yl)carbamoyl)phenoxy)-1-methylcyclohexane-1-carboxylic acid] | 3.2 | 63 | 64 | 28 | 700 (≈ 396 µg/mL) | 102 | 0.0031 |  |  |  |
| COc1cc(F)c(O[C@H]2CC[C@@](C)(C(=O)O)CC2)cc1C(=O)N[C@@H]1COCC[C@@H]1C(=O)Nc1cccc(S(=O)(=O)C(F)(F)F)c1 (relative stereo) [Example 559, (1R,4s)-4-(2-Fluoro-4-methoxy-5-(((3S*,4S*)-4-((3-((trifluoromethyl)sulfonyl)phenyl)carbamoyl)tetrahydro-2H-pyran-3-yl)carbamoyl)phenoxy)-1-methylcyclohexane-1-carboxylic acid] | 2.5 | 9.4 | 4.1 | 8.4 | 900 (≈ 595 µg/mL) | 102 | 1.2 |  |  |  |
| COc1cc(F)c(O[C@H]2CC[C@@](C)(C(=O)O)CC2)cc1C(=O)N[C@@H]1COC[C@@H]1C(=O)Nc1cccc(S(=O)(=O)C(F)(F)F)c1 (relative stereo) [Example 561, (1R,4s)-4-(2-Fluoro-4-methoxy-5-(((3S*,4R*)-4-((3-((trifluoromethyl)sulfonyl)phenyl)carbamoyl)tetrahydrofuran-3-yl)carbamoyl)phenoxy)-1-methylcyclohexane-1-carboxylic acid] | 3.7 | 17 | 6.3 | 55 | 930 (≈ 601 µg/mL) | 104 | 0.13 |  |  |  |
| CCC(CC)[C@H](C)NC(=O)[C@H]1[C@@H]2CC[C@@H](C2)[C@H]1NC(=O)c1cc(O[C@H]2CC[C@@](C)(C(=O)O)CC2)c(F)cc1OC (single isomer, unassigned) [Example 144, (1S,4s)-4-(5-(((1S,2R,3S,4R)-3-(((R*)-3-Ethylpentan-2-yl)carbamoyl)bicyclo-[2.2.1]heptan-2-yl)carbamoyl)-2-fluoro-4-methoxyphenoxy)-1-methylcyclohexane-1-carboxylic acid] | 3 |  |  |  | 29 (≈ 16.3 µg/mL) | 106 | 0.093 | 240 | 17 | 29 |
| CCC(CC)[C@@H](C)NC(=O)[C@H]1[C@@H]2CC[C@@H](C2)[C@H]1NC(=O)c1cc(O[C@H]2CC[C@@](C)(C(=O)O)CC2)c(F)cc1OC (single isomer, unassigned) [Example 145, (1S,4s)-4-(5-(((1S,2R,3S,4R)-3-(((R*)-3-Ethylpentan-2-yl)carbamoyl)bicyclo[2.2.1]heptan-2-yl)carbamoyl)-2-fluoro-4-methoxyphenoxy)-1-methylcyclohexane-1-carboxylic acid] | 0.81 |  |  |  | 870 (≈ 488 µg/mL) | 95 | 1.3 | 180 | 14 | 53 |
| COc1cc(F)c(-c2ccc(CCS(N)(=O)=O)cc2)cc1C(=O)N[C@H]1[C@H]2CC[C@H](C2)[C@H]1C(=O)Nc1cccc(S(=O)(=O)C(F)(F)F)c1 (single isomer, unassigned) [Example 326] | <0.35 |  |  |  | 8 (≈ 5.58 µg/mL) | 114 | 0.11 | 65 | 8 | 4.6 |
| COc1cc(F)c(O[C@H]2CC[C@@H](C(=O)O)CC2)cc1C(=O)N[C@H]1[C@@H](C(=O)Nc2ccc(F)c(C(F)(F)F)c2)[C@@H]2C=C[C@H]1C2 (single isomer, unassigned) [Example 498] | 0.86 |  |  |  | > 980 | 113 | > 0.03 | 23 | 7.7 | 17 |
| COc1cc(F)c(O[C@H]2CC[C@@](C)(C(=O)O)CC2)cc1C(=O)NC1CCOCC1C(=O)Nc1cccc(S(=O)(=O)C(F)(F)F)c1 (single isomer, unassigned) [Example 518, (1R,4s)-4-(2-Fluoro-4-methoxy-5-(((3S*,4S*)-3-((3-((trifluoromethyl)sulfonyl)phenyl)carbamoyl)tetrahydro-2H-pyran-4-yl)carbamoyl)phenoxy)-1-methylcyclohexane-1-carboxylic acid] | 2.1 |  |  |  | 990 (≈ 654 µg/mL) | 95 | 0.13 | 22 | 5 | 13 |
| COc1cc(F)c(O[C@H]2CC[C@@](C)(C(=O)O)CC2)cc1C(=O)NC1C2CCC(C2)C1C(=O)Nc1ccc(F)c(S(F)(F)(F)(F)F)c1 (single isomer, unassigned) [Example 520, (1R,4s)-4-(2-Fluoro-5-(((1S*,2S*,3R*,4R*)-3-((4-fluoro-3-(pentafluoro-λ6-sulfaneyl)phenyl)carbamoyl)bicyclo[2.2.1]heptan-2-yl)carbamoyl)-4-methoxyphenoxy)-1-methylcyclohexane-1-carboxylic acid] | <0.070 |  |  |  | 460 (≈ 314 µg/mL) | 108 | 0.00049 | 12 | 5.7 | 7.5 |
| COc1cc(F)c(OC2CCC(C)(C(=O)O)CC2)cc1C(=O)NC1CC(OC)CC1C(=O)Nc1cccc(S(=O)(=O)C(F)(F)F)c1 (single isomer, unassigned) [Example 524, (1R,4s)-4-(2-Fluoro-4-methoxy-5-(((1S*,2R*,4R*)-4-methoxy-2-((3-((trifluoromethyl)sulfonyl)phenyl)carbamoyl)cyclopentyl)carbamoyl)phenoxy)-1-methylcyclohexane-1-carboxylic acid] | 3.6 |  |  |  | 920 (≈ 621 µg/mL) | 110 | 0.025 | 16 | 6.2 | 23 |
| COc1cc(C#N)c(O[C@H]2CC[C@@](C)(C(=O)O)CC2)cc1C(=O)NC1C2CCC(O2)C1C(=O)NCC1(C)CCC1 (single isomer, unassigned) [Example 534, (1R,4s)-4-(2-Cyano-4-methoxy-5-(((1S*,2S*,3R*,4R*)-3-(((1-methylcyclobutyl)methyl)carbamoyl)-7-oxabicyclo[2.2.1]heptan-2-yl)carbamoyl)phenoxy)-1-methylcyclohexane-1-carboxylic acid] | 7.1 |  |  |  | > 1000 | 106 | 0.099 | 16 | 43 | 19 |
